Measured values taken from PubChem BioAssay AID720512 (Broad Institute, 2013).
Activity calls are given as the source filed them. The rule behind the calls is not given here.

Target: Toxin B (TcdB) glycohydrolase, Clostridioides difficile 630
Assay: TcdB glycohydrolase inhibitors, dose response, biochemical, cherry-pick, plate reader (AID 720512)
Details: recombinant TcdB glycohydrolase activity

| Structure (SMILES) | activity change, negative = inhibition (at 19.5 µM (top of the series)) | also measured |
| --- | --- | --- |
| O=C(NC(=S)NCc1ccccc1)c1cccnc1 | inactive |  |
| CC1C(=O)NN=C1c1ccc([N+](=O)[O-])cc1 (stereo not drawn) | inactive |  |
| COc1ccccc1-c1cn[nH]c1-c1ccc(O)cc1O | inactive |  |
| COc1ccc(C(CNC(=O)c2oc3ccc(OC)cc3c2C)N2CCCC2)cc1 (stereo not drawn) | inactive |  |
| COc1ccccc1/C=C/c1onc(C)c1S(=O)(=O)N1CCC(C(=O)NC(C)C)CC1 | inactive |  |
| CNC(=O)C[C@H]1CC[C@@H]2[C@@H](COc3ccc(NC(=O)c4ccc(OC)cc4)cc3C(=O)N2C)O1 | inactive |  |
| Oc1ccc(/C=N/Nc2nc(N3CCCC3)nc(N3CCCC3)n2)cc1O | inactive |  |
| CN1CCN(C(CNC(=O)c2ccc(Br)o2)c2ccc(F)cc2)CC1 (stereo not drawn) | inactive |  |
| Cc1ccc(S(=O)(=O)N2CC(CO)=CCC2c2ccccc2)cc1 (stereo not drawn) | inactive |  |
| O=C(NCCc1cccc(Cl)c1)c1ccc(Cl)c([N+](=O)[O-])c1 | inactive |  |
| Nc1ccc(Sc2ccc(N)cc2)cc1 | inactive |  |
| CN1C(=O)c2cc(NC(=O)Nc3ccccc3Cl)ccc2OC[C@H]2O[C@@H](CC(=O)NCCCN3CCOCC3)CC[C@H]21 |  | activity change, negative = inhibition (at 21 µM (top of the series)): inactive |
| OCC1CCCN(C(=S)Nc2ccc(Nc3ccccc3)cc2)C1 (stereo not drawn) | inactive |  |
| COc1ccc(/C=C/c2nc3ccccc3n2C)cc1 | inactive |  |
| COc1ccccc1Nc1nnc(SCc2cc(=O)n3ccsc3n2)s1 | inactive |  |
| O=C(CSc1ccc2nnc(-c3ccc(F)cc3)n2n1)N1CCOCC1 | inactive |  |
| CCC(=Nc1ccccc1)C1=C(O)CCCC1=O | inactive |  |
| COCCNc1cc(N)c([N+](=O)[O-])cc1[N+](=O)[O-] | inactive |  |
| COc1ccc(C(=O)Nc2cc(Cl)ccc2C(=O)O)cc1 | inactive |  |
| CN(C)CCCNC(=O)C[C@H]1CC[C@@H]2[C@@H](COc3ccc(NC(=O)c4ccc5c(c4)OCO5)cc3C(=O)N2C)O1 | inactive |  |
| CN1CC(=O)N/C1=N\C(=O)Nc1ccc(O)cc1 | inactive |  |
| CCCSc1nc2c([nH]1)c(=O)n(C)c(=S)n2C | inactive |  |
| O=C(CSc1cccc2cccnc12)N/N=C/c1ccc(F)cc1 | inactive |  |
| Cc1ccc(NNC(=O)c2ccno2)cc1Cl | inactive |  |

| Structure (SMILES) | activity change, negative = inhibition (at 19.5 µM (top of the series)) | also measured |
| --- | --- | --- |
| Cc1nc(-c2ccccn2)nc(SCC(=O)c2ccc(F)cc2)c1Cl | inactive |  |
| COc1cc(-c2noc(C)c2C#CC2(O)CCCCC2)cc(OC)c1OC | inactive |  |
| CNC(C(=O)c1ccccc1)C(OC)c1cccc([N+](=O)[O-])c1 (stereo not drawn) | inactive |  |
| CCN(C(=O)COC(=O)c1cccnc1SC)C1CCCCC1 | inactive |  |
| CC(=O)Nc1ccccc1O | inactive |  |
| COc1ccccc1/C=N/NC(=O)CC(=O)NCc1ccccc1 | inactive |  |
| CCOC(=O)c1cccc(NC(=O)CCNS(=O)(=O)c2cccc3nonc23)c1 | inactive |  |
| O=C(Cn1cc(COc2ccc(Cl)c(Cl)c2)nn1)NS(=O)(=O)c1ccccc1OC(F)(F)F | inactive |  |
| O=C(CCn1c(=O)oc2cc(Cl)ccc21)Nc1ccc(O)cc1 |  | AC50: > 20 µM (inactive) |
| Cc1cccc(/C=C/c2onc(C)c2S(=O)(=O)N2CCC(C(=O)N3CCC(C)CC3)CC2)c1 | inactive |  |
| CCCCn1c(N)c(N(CCOC)C(=O)CSc2nnc(-c3ccco3)n2CC)c(=O)[nH]c1=O | inactive |  |
| Cn1cnnc1SCC(=O)NC1CCCCC1 | inactive |  |
| COc1ccc2cc3c(nc2c1)OCC3 | inactive |  |
| COc1ccc(-c2nc3ccc([N+](=O)[O-])cc3[nH]2)cc1 | inactive |  |
| Cc1c(O)ccc(NC(=O)/C=C/c2ccccc2)c1C | inactive |  |
| COc1ccc(C(=O)Nc2ccccc2C(=O)O)cc1Cl | inactive |  |
| CCOc1ccc2c(C)nc(NC3=NC(C)(C)C=C(C)N3)nc2c1 | inactive |  |
| COc1ccc(NC(=O)c2cc(S(=O)(=O)N3CCc4ccccc43)cn2C)cc1OC | inactive |  |
| Cc1ccc(S(=O)(=O)N2CCOCC2)cc1C(=O)NCCCN1CCCC1=O | inactive |  |
| Cc1cc(C(=O)CSc2nc(N)cc(=O)[nH]2)c(C)n1CC1CCCO1 (stereo not drawn) | inactive |  |
| COc1cc(/C=C/c2sc3ccccc3[n+]2CCCS(=O)(=O)[O-])ccc1O | inactive |  |
| COc1ccccc1N1CC(O)=C(c2nc3ccccc3s2)C1=N | inactive |  |
| COc1cc(Cn2nnc3ccccc32)ccc1O | inactive |  |
| CC(=O)c1cccc(-c2ccnc3c2CC(C(=O)NCc2ccccc2)O3)c1 (stereo not drawn) | inactive |  |

| Structure (SMILES) | activity change, negative = inhibition (at 19.5 µM (top of the series)) | also measured |
| --- | --- | --- |
| Cc1cccc(-n2c(=O)c3ccccc3n3c(=S)[nH]nc23)c1C | inactive |  |
| CC(=O)N1CC[C@@H]2[C@@H](CO)N(C)c3ccc(-c4ccccc4)cc3[C@@H]21 |  | AC50: > 42 µM (inactive) |
| CN(C)CCNc1ccc(CO)c2sc3ccc(O)cc3c(=O)c12 | inactive |  |
| COc1ccc(/C=C\c2onc(C)c2S(=O)(=O)N2CCC(C(=O)NCCC(C)C)CC2)cc1 | inactive |  |
| CC(=O)Nc1ccc(NC(=O)CN2CCN(c3ccccn3)CC2)cc1 | inactive |  |
| NC(=O)c1ccc2c(=O)c(O)c(-c3cc(Cl)c(N)c(Cl)c3)[nH]c2c1 | inactive |  |
| CC(Sc1nc(N)cc(=O)[nH]1)C(=O)NCC(=O)Nc1ccc(F)c(F)c1F (stereo not drawn) | inactive |  |
| Cc1cc(N/N=C/c2ccc(O)cc2O)nc(N2CCOCC2)n1 | inactive |  |
| COc1ccc(/C=C2/C(=O)C(C)(C(C)C)CCC2C)cc1 (stereo not drawn) | inactive |  |
| Nc1ccc(OC(=O)Nc2ccc(O)cc2)cc1 | inactive |  |
| c1ccc(Cc2nnc3n2N=C(c2ccccc2)CS3)cc1 | inactive |  |
| CCc1cc(-c2n[nH]c(C)c2-c2nc(C)cs2)c(O)cc1OC |  | AC50: > 39 µM (inactive) |
| C[C@H](CO)N1C[C@H](C)[C@@H](CN(C)C(=O)Nc2ccc(C(F)(F)F)cc2)Oc2c(cccc2N(C)C)C1=O | inactive |  |
| Cc1ccc2sc(NNC(=O)C3COc4ccccc4O3)nc2c1C (stereo not drawn) | inactive |  |
| Cn1ncc(Br)c1C(=O)N/N=C/c1cccc(OC2CSC2)c1 | inactive |  |
| COc1cc(/C=N/NC(=O)C2(O)c3ccccc3-c3ccccc32)ccc1O | inactive |  |
| O=C(Nc1cc(S(=O)(=O)N2CCOCC2)ccc1N1CCOCC1)c1ccccc1Cl | inactive |  |
| COc1cc(/C=N/NC(=O)c2cccc([N+](=O)[O-])c2)ccc1O |  | AC50: > 39 µM (inactive) |
| CN(C(=O)COC(=O)CNC(=O)c1ccccc1Cl)c1ccccc1 | inactive |  |
| Cc1cccn2c(=S)[nH]nc12 | inactive |  |
| CCCNC(=O)Nc1ccc2c(c1)C(=O)N(C)[C@@H]1CC[C@H](CC(=O)NC3CCC3)O[C@H]1CO2 | inactive |  |
| COc1ccccc1C1=NNC(=NCc2ccccc2)SC1 | inactive |  |
| CN(C)c1ccc(Cl)c(NC(N)=S)c1 | inactive |  |
| CN1CCN(/N=C/c2c[nH]c3ccccc23)CC1 | inactive |  |

| Structure (SMILES) | activity change, negative = inhibition (at 19.5 µM (top of the series)) | also measured |
| --- | --- | --- |
| C=CCc1ccc(O)c(-c2ccc(O)c(CC=C)c2)c1 | inactive |  |
| O=C1CSC(=Nc2ccc(O)cc2)N1 | inactive |  |
| CN(C)/C=C(\C#N)C(=O)Nc1ccc(O)cc1F | inactive |  |
| COC(=O)/C=C/C(=O)Nc1ccc(O)c(Cl)c1 |  | AC50: 20.9 µM |
| COc1ccc2nccc(/C=C/c3ccnc4ccc(OC)cc34)c2c1 | inactive |  |
| CCOC(=O)Nc1ccc(OC(=O)Oc2ccc(NC(=O)OCC)cc2)cc1 | inactive |  |
| C[C@H]1CN([C@@H](C)CO)C(=O)c2c(c3ccccc3n2C)-c2ccccc2CO[C@H]1CN(C)C | inactive |  |
| CCCc1cc(=O)oc2c3c(cc(OCC(=O)NCCCn4ccnc4)c12)OC(C)(C)CC3 | inactive |  |
| CC1(C)CC(=O)C(C=Nc2ccc(N)cc2)=C(O)C1 | inactive |  |
| ONC(=Nc1ccccc1Cl)c1ccccc1Cl |  | AC50: > 39 µM (inactive) |
| COC(=O)C[C@@H]1CC[C@@H]2[C@H](COC[C@H](O)CN2C(=O)Nc2ccccc2OC)O1 | inactive |  |
| Cc1cc(C)cc(N=C2NC(=O)CS2)c1 | inactive |  |
| O=C(O)c1ccc2c(c1)N(Cc1cccc(F)c1)C(=O)CS2 | inactive |  |
| Cc1ccc(S(=O)(=O)Oc2cccc(/C=N/Nc3ccc(C(=O)O)cc3)c2)cc1 | inactive |  |
| O=C(C[C@@H]1CC[C@@H]2[C@H](COC[C@H](O)CN2C(=O)c2ccccn2)O1)NC1CCC1 | inactive |  |
| CN(C)CC(=O)N1CC[C@@H]2[C@H]1c1cc(-c3ccccc3)ccc1N(C)[C@H]2CO |  | activity change, negative = inhibition (at 21 µM (top of the series)): inactive |
| CC[C@H](C)[C@H]1CNC(=S)N1CC1CCN(CCCC2CCCC2)CC1 | inactive |  |
| CC(=O)c1ccc(NC(=O)CNCC(c2ccccc2)N(C)C)cc1 (stereo not drawn) | inactive |  |
| CCCCNC(=O)C1CCN(S(=O)(=O)c2c(C)noc2/C=C\c2ccc(OC)cc2)CC1 | inactive |  |
| CCNC(=O)C[C@H]1CC[C@@H]2[C@@H](COc3ccc(NC(=O)c4cccc(OC)c4)cc3C(=O)N2C)O1 |  | AC50: > 39 µM (inactive) |
| CNC(=O)N(O)C1N(/N=C/c2cccs2)C(=S)SC1(C)C (stereo not drawn) | inactive |  |
